Measured values reported in article PMC5923120, “Acylhydrazones as Antifungal Agents Targeting the Synthesis of Fungal Sphingolipids” (Antimicrobial Agents and Chemotherapy, 2018).
≈ marks a conversion by molar mass, not a printed value. Where two headings read alike, the source gives them in different places.

Legend:
C. neoformans [1] = test: In vitro susceptibility testing (MIC80); format: cell-based, Cryptococcus neoformans
Description: MICs were determined by following the methods of the Clinical and Laboratory Standards Institute (CLSI), with modifications. […] The compounds were serially diluted from 32 to 0.03 μg/ml in a 96-well plate. The inoculum was prepared as described in CLSI protocol M27A3 guidelines ([39]). […] The MICs were determined as the lowest concentration of the compound that inhibited 80% of growth compared to the control.

HepG2 = test: In vitro toxicity (MTT), HepG2; format: cell-based; conditions: Homo sapiens, cytotoxicity
Description: (§1) The murine macrophage cell line J774 and human cancer cell lines A549 and HepG2 were maintained in DMEM containing 10% fetal bovine serum (FBS) and 1% penicillin-streptomycin. At passage 7, 10^5 cells/well in DMEM containing 10% FBS were transferred into 96-well plates and cultured for 14 h for the cells to adhere to the wells. The compounds were added to the cells at concentrations ranging from 0.03 to 128 μg/ml. The wells without the compound served as controls. […] After 24 or 48 h, the supernatant was removed and 50 μl of 5-mg/ml 3-(4,5-dimethylthiazol-2-yl)-2,5-diphenyltetrazoliumbromide (MTT) solution in phosphate-buffered saline (PBS) was added to each well. The plates were incubated for an additional 4 h. The formazan crystal formed inside the cell was dissolved by adding 50 μl of dimethyl sulfoxide (DMSO). The optical density was measured at 570 nm.

in vitro [2] = conditions: human, microsomes; for remaining at 0 h, 2 μM: % remaining at 0 min; for remaining at 0.25 h, 2 μM: % remaining at 15 min; for remaining at 0.5 h, 2 μM: % remaining at 30 min; for remaining at 0.75 h, 2 μM: % remaining at 45 min; for remaining at 1 h, 2 μM: % remaining at 60 min
Description: (§2) To test for metabolic stability, 40 μl of 10 mM NADPH solution was added to each well of a 96-well plate. The final concentration of NADPH was 1 mM. The mixture was prewarmed at 37°C for 5 min. The negative-control samples were prepared by replacing NADPH solutions with 40 μl of ultrapure H2O. The negative control was used to exclude the misleading factor that resulted from the instability of the chemical itself. Samples with NADPH were prepared in duplicate. Negative controls were prepared in singlet. The reaction was started with the addition of 4 μl of 200 μM control compound or test compound solutions. […] An aliquot of 90 μl of the supernatant was mixed with 90 μl of ultrapure H2O and then used for LC-MS/MS analysis.

[3] = Pharmacokinetic studies (plasma concentration); format: in vivo, mice
Description: For i.p. study, BHBM and D13 were dissolved in a mixture of cremophore-ethanol (1:1) to prepare a 10-mg/ml stock solution. The stock solution was diluted in PBS to obtain 200-μg/ml and 400-μg/ml solutions for i.p. administrations in C3H/HeN mice (n = 3). The compounds were administered to control (healthy) mice or immunocompromised mice infected with P. murina at doses of 0.8 mg/kg and 1.6 mg/kg via tail vein injection or intraperitoneal injection in a final volume of 100 μl. The mice were sacrificed and blood samples were collected predose and 0.5, 1, 2, 4, 8, 12, and 24 h after administration into K2EDTA-containing tubes. The samples were centrifuged immediately, and plasma was collected and stored at −80°C until bioanalysis. Plasma samples were extracted using methylene chloride.
Briefly, 50 μl of the plasma sample was taken into a glass vial, and 10 μl of internal standard N′-(3-bromobenzylidene)-4-hydroxybenzohydrazide was added. After the contents of the glass vial were mixed, 1 ml of methylene chloride was added to the vial and the samples were vortex mixed for 30 s, followed by centrifugation for 5 min. Eight hundred microliters of supernatant then was transferred to another tube and evaporated to dryness using a centrifugal evaporator. The residue was reconstituted in 100 μl acetonitrile-water (50:50) solution, mixed, and transferred to mass spectrometry vials. Separation was performed under isocratic reverse-phase chromatographic conditions using a Waters XBridge C18 column (3.5 μm; 2.1 by 100 mm) (Waters, Milford, MA), a Finnigan Surveyor MS pump (Thermo Fisher Scientific), and a Finnigan Micro AS autosampler (Thermo Fisher Scientific).
The mobile phase consisted of water-acetonitrile with 0.1% formic acid (50:50) run at a flow rate of 200 μl/min. Five-microliter aliquots then were analyzed using an LTQ-FT liquid chromatography-tandem mass spectrometer (LC-MS/MS) with the electrospray source in the positive ion mode (Thermo Fisher Scientific). For i.v. and p.o. administration, the formulation consisted of a 0.5-mg/ml solution of PEG 400-DMA (9:1). A volume of 1.21 mg of D13 was dissolved in 0.242 ml of […] (DMA) by vortexing and sonication, and then 2.178 ml of PEG440 was added with vortexing and sonication until a clear solution was obtained. For a 4-mg/ml solution of PEG 400-DMA (9:1), 2.13 mg of D13 was dissolved in 0.053 ml of DMA by vortexing and sonication, and then 0.479 ml of PEG 440 was added with vortexing and sonication until a clear solution was obtained. For i.v. and p.o. administration of BHBM, the formulation consisted of a 0.5-mg/ml solution of 5% DMSO and 5% solutol in water. A volume of 0.98 mg of BHBM was dissolved in 0.098 ml of DMSO with vortexing and sonication. […]

in vitro [4] = conditions: monkey
Description: A commercially available kit was used to examine permeability through the blood-brain barrier (BBB kit MBT-24; Pharmaco Cell Co. Ltd.). This kit allows us to perform a permeability assay using an in vitro reproduction of the blood-brain barrier using monkey brain. Briefly, in a 12-well plate there is a triple culture, with endothelial cells in the luminal part and perycites and astrocytes in the abluminal side connected by tight junctions. The luminal side of the well represents the blood side, whereas the abluminal side represents the brain side. The integrity of the blood-brain barrier is assessed by the measurement of TEER, which indicates the formation of tight junctions. To have an efficient system, the TEER should be >150 Ω cm^2. The kit is kept frozen at −80°C until it is ready to use. […] After that it takes 3 days for the cells to adjust, and then the plate can be used in 4 days for the experiment. For drug testing, after assessing the TEER, the drugs were added in the chosen medium at the desired concentrations and at different time points. At the end of each time point the TEER was measured to assess if the BBB was still intact. After that the medium was collected and subjected to MS to measure the concentration of the samples in the brain side and calculate the permeability value (Papp).

in vitro [5] = conditions: mouse, microsomes; for remaining at 0 h, 2 μM: % remaining at 0 min; for remaining at 0.25 h, 2 μM: % remaining at 15 min; for remaining at 0.5 h, 2 μM: % remaining at 30 min; for remaining at 0.75 h, 2 μM: % remaining at 45 min; for remaining at 1 h, 2 μM: % remaining at 60 min
Description: as §2

C. neoformans [6] = test: Mouse model of cryptococcosis; format: in vivo, mice; conditions: for mice that survived: treatment immediately after intranasal infection, 40 days
J774 = test: In vitro toxicity (MTT), J774; format: cell-based, murine; conditions: Mus musculus, cytotoxicity
Description: as §1

C. albicans = test: Mouse model of invasive candidiasis; format: in vivo, mice; conditions: oral gavage 20 mg/kg/day, i.v. infection with 10^4 cells of C. albicans, after 21 days
C. neoformans [7] = test: In vitro killing assay; conditions: minimum concentration that kills 100% of C. neoformans cells in 48 h
Description: C. neoformans cells from a culture grown overnight were washed in PBS and resuspended in YNB buffered with HEPES at pH 7.4. The cells were counted, and 2 × 10^4 cells were incubated with different concentrations of the drugs in a final volume of 10 ml with a final concentration of 0.5% DMSO. The tubes were then incubated at 37°C with 5% CO2 on a rotary shaker at 200 rpm. Aliquots were taken at the time points indicated and diluted, and 100-µl portions were plated onto YPD plates.

[8] = Cryptococcus neoformans, ChemBridge compounds, Supplementary Table 1, read-out: MIC80
[9] = lowest concentration inhibiting 80% of growth
[10] = i.p. 1.2 mg/kg/day, treatment started 5 days after infection
[11] = oral 20 mg/kg/day starting the day of infection
[12] = oral 20 mg/kg/day, 32 days posttreatment, data not shown

Structure (SMILES)	MIC80 (C. neoformans [1]; [8])	MIC80 (C. neoformans [1]; [9])	IC50 (HepG2)	half-life at 2 μM (in vitro [2])	microsomal CLint at 2 μM (in vitro [2])	remaining at 0 h, 2 μM (in vitro [2]; with NADPH)	remaining at 0 h, 2 μM (in vitro [2]; without NADPH)	remaining at 0.25 h, 2 μM (in vitro [2]; with NADPH)	remaining at 0.25 h, 2 μM (in vitro [2]; without NADPH)	remaining at 0.5 h, 2 μM (in vitro [2]; with NADPH)	remaining at 0.5 h, 2 μM (in vitro [2]; without NADPH)	remaining at 0.75 h, 2 μM (in vitro [2]; with NADPH)	remaining at 0.75 h, 2 μM (in vitro [2]; without NADPH)	remaining at 1 h, 2 μM (in vitro [2]; without NADPH)	time up to which detected in plasma ([3]; i.p. administration)	Papp at 5 min (in vitro [4])	Papp at 15 min (in vitro [4])	Papp at 30 min (in vitro [4])	half-life at 2 μM (in vitro [5])	microsomal CLint at 2 μM (in vitro [5])	further results
O=C(N/N=C/c1cc(Br)cc(Br)c1O)c1ccc(Br)cc1 [D13]	0.06 µg/mL (≈ 0.126 µM)	0.06 µg/mL (≈ 0.126 µM)	> 128 µg/mL	1.72 h	13.4 µL/min/mg	100%	100%	83.9%	96.5%	73%	86.5%	73.1%	81.9%	88.9%	≥ 20 h	6.8 ×10⁻⁶ cm/s	2.2 ×10⁻⁶ cm/s	1.1 ×10⁻⁶ cm/s	1.48 h	15.7 µL/min/mg	remaining at 1 h, 2 μM (in vitro [2]; with NADPH): ~60%; remaining at 0 h, 2 μM (in vitro [5]; with NADPH): 100%; remaining at 0 h, 2 μM (in vitro [5]; without NADPH): 100%; remaining at 0.25 h, 2 μM (in vitro [5]; with NADPH): 80.8%; remaining at 0.25 h, 2 μM (in vitro [5]; without NADPH): 90.7%; remaining at 0.5 h, 2 μM (in vitro [5]; with NADPH): 69.3%; remaining at 0.5 h, 2 μM (in vitro [5]; without NADPH): 88.1%; remaining at 0.75 h, 2 μM (in vitro [5]; with NADPH): 64.6%; remaining at 0.75 h, 2 μM (in vitro [5]; without NADPH): 82.8%; remaining at 1 h, 2 μM (in vitro [5]; with NADPH): ~60%; remaining at 1 h, 2 μM (in vitro [5]; without NADPH): 80.8%; mice that survived (C. neoformans [6]; i.p. 1.2 mg/kg/day): 70%; mice that survived until the end of the experiment (C. neoformans [6]; [10]): 40%; mice that survived until the end of the experiment (C. neoformans [6]; [11]): 50%; CFU in brains and lungs (C. neoformans [6]; [12]): only one D13-treated mouse showed fungal colonies and only in the lung; fungal cells in brains (C. neoformans [6]; [12]): clear of fungal cells; IC50 (J774): 16 µg/mL (≈ 33.5 µM); mice that survived (C. albicans): 20%; K100* (C. neoformans [7]): 0.5 µg/mL
Cc1ccccc1C(=O)N/N=C/c1cc(Br)ccc1O [BHBM, (E)-N′-(3-bromo-6-hydroxybenzylidene)-2-methylbenzohydrazide]	1 µg/mL (≈ 3 µM)	1 µg/mL (≈ 3 µM)	32 µg/mL (≈ 96 µM)	0.814 h	28.4 µL/min/mg	100%	100%	83.2%	101%	62.5%	88.5%	51.3%	81.2%	82.7%	≤ 4 h	22 ×10⁻⁶ cm/s	9 ×10⁻⁶ cm/s	9 ×10⁻⁶ cm/s	0.122 h	189 µL/min/mg	time up to which detected in plasma ([3]; i.v. injection): 8 h; plasma concentration ([3]; i.v., reached within the first hour and remained for about 8 h): 10 ng/mL; remaining at 0 h, 2 μM (in vitro [5]; with NADPH): 100%; remaining at 0 h, 2 μM (in vitro [5]; without NADPH): 100%; remaining at 0.25 h, 2 μM (in vitro [5]; with NADPH): 25.3%; remaining at 0.25 h, 2 μM (in vitro [5]; without NADPH): 109%; remaining at 0.5 h, 2 μM (in vitro [5]; with NADPH): 4.93%; remaining at 0.5 h, 2 μM (in vitro [5]; without NADPH): 89.9%; remaining at 0.75 h, 2 μM (in vitro [5]; with NADPH): 1.52%; remaining at 0.75 h, 2 μM (in vitro [5]; without NADPH): 86.3%; remaining at 1 h, 2 μM (in vitro [5]; without NADPH): 84.1%; mice that survived (C. neoformans [6]; i.p. 1.2 mg/kg/day): 50%; day by which all mice died (C. neoformans [6]; [10]): ≤ 30 days; mice that survived until the end of the experiment (C. neoformans [6]; [11]): 10%; IC50 (J774): 16 µg/mL (≈ 48 µM); mice that survived (C. albicans): 20%; K100* (C. neoformans [7]): >1 µg/mL
